Measurements as given in patent publication US7601716B2, “Pyridopyrazines and derivatives thereof as ALK and c-Met inhibitors” (Cephalon, Inc., priority 2006, dated 2009).

The molecules below were run against baculovirus-expressed ALK (Homo sapiens, UniProt Q9UM73) (assay: ALK Kinase Assay (ELISA/TRF, PLC-γ substrate)). Conditions: read-out: ALK Kinase Inhibition (IC50).
Type: biochemical
How it was run: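 Plates coated with GST-PLC-γ substrate (10 µg/mL in TBS), then reaction started with 30 ng/ml baculovirus-expressed ALK, 15 min at 37 °C. Phosphotyrosine detected by Eu-labeled PT66 antibody and time-resolved fluorescence. IC50 from variable-slope sigmoidal fit of percent inhibition versus log concentration.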
Further: 1 µM ATP (Km level).

baculovirus-expressed ALK, sequence (Q9UM73 19-1620): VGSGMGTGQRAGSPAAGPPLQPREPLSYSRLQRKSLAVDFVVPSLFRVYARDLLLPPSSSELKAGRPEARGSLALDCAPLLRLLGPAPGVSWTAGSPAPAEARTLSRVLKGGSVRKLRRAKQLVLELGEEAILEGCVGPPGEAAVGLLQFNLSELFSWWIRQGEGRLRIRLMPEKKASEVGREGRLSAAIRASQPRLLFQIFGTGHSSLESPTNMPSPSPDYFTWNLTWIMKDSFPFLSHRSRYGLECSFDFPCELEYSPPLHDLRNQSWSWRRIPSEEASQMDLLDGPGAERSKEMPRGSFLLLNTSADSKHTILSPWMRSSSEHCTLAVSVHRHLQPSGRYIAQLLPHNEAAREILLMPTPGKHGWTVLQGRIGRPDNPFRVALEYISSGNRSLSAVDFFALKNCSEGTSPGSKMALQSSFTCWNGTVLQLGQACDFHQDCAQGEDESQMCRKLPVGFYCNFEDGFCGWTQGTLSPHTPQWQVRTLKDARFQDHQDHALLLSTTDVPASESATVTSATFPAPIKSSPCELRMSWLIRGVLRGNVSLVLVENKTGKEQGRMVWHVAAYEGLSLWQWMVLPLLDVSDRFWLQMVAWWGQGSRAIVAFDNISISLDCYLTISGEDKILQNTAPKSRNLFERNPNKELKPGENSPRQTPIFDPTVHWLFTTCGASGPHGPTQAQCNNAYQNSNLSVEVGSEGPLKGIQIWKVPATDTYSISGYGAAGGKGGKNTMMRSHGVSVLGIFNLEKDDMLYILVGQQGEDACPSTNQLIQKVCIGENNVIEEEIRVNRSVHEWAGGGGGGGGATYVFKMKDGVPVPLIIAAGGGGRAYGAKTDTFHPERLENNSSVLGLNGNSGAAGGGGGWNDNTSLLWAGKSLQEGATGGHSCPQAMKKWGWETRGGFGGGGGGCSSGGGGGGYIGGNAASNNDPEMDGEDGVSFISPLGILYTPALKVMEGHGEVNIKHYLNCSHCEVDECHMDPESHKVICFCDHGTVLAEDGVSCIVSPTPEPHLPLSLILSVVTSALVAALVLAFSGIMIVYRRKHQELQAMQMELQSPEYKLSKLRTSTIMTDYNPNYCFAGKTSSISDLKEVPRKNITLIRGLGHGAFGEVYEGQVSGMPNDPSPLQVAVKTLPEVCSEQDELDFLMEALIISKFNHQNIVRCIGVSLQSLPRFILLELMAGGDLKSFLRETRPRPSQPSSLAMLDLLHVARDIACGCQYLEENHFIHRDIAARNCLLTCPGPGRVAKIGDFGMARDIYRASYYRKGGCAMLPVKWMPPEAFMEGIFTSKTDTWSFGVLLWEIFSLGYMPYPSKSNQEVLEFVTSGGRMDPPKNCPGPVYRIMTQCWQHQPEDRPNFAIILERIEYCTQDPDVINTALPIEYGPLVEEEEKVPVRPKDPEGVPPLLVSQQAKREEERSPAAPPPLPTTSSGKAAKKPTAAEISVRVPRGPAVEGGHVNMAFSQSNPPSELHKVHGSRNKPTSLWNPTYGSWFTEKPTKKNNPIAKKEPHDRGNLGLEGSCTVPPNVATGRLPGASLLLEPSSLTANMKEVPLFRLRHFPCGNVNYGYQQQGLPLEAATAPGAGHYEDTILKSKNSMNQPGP

Row | SMILES | IC50
1 | CC(C)NC(=O)CN1CCN(C(=O)c2cccc(-c3cnc4c(c3)N(Cc3cc(Cl)ccc3C(F)(F)F)CCN4)c2)CC1 [Example 336, 2-[4-(3-{1-[5-Chloro-2-(trifluoromethyl)benzyl]-1,2,3,4-tetrahydropyrido[2,3-b]pyrazin-7-yl}benzoyl)piperazin-1-yl]-N-isopropylacetamide] | 100 to 1000 nM
2 | O=C(NCc1cccc(Cl)c1)c1ccc(-c2cnc3c(c2)N(Cc2cc(Cl)ccc2C(F)(F)F)CCN3)cc1 [Example 414, N-(3-Chloro-benzyl)-4-{1-[5-chloro-2-(trifluoromethyl)benzyl]-1,2,3,4-tetrahydropyrido[2,3-b]pyrazin-7-yl}benzamide] | 100 to 1000 nM
3 | O=C(c1ccc(-c2cnc3c(c2)N(Cc2cc(Cl)ccc2C(F)(F)F)CCN3)cc1)N1CCN(c2cccc(C(F)(F)F)c2)CC1 [Example 374, (4-{1-[5-Chloro-2-(trifluoromethyl)benzyl]-1,2,3,4-tetrahydropyrido[2,3-b]pyrazin-7-yl}phenyl)-{4-[3-(trifluoromethyl)phenyl]piperazin-1-yl}methanone] | 100 to 1000 nM
4 | CN1CCC(NC(=O)c2ccc(-c3cnc4c(c3)N(Cc3cc(Cl)ccc3C(F)(F)F)CCN4)cc2)CC1 [Example 393, 4-{1-[5-Chloro-2-(trifluoromethyl)benzyl]-1,2,3,4-tetrahydropyrido[2,3-b]pyrazin-7-yl}-N-(1-methylpiperidin-4-yl)benzamide] | < 100 nM
5 | O=C(c1cccc(-c2cnc3c(c2)N(Cc2cc(Cl)ccc2C(F)(F)F)CCN3)c1)N1CCC(c2ccccc2)CC1 [Example 313, (3-{1-[5-Chloro-2-(trifluoromethyl)benzyl]-1,2,3,4-tetrahydropyrido[2,3-b]pyrazin-7-yl}phenyl)-(4-phenylpiperidin-1-yl)methanone] | 100 to 1000 nM
6 | CC(C)NC(=O)CN1CCN(C(=O)c2ccc(-c3cnc4c(c3)N(Cc3cc(Cl)ccc3C(F)(F)F)CCN4)cc2)CC1 [Example 402, 2-[4-(4-{1-[5-Chloro-2-(trifluoromethyl)benzyl]-1,2,3,4-tetrahydropyrido[2,3-b]pyrazin-7-yl}benzoyl)piperazin-1-yl]-N-isopropylacetamide] | < 100 nM
7 | O=C(NC1CCc2ccccc21)c1cccc(-c2cnc3c(c2)N(Cc2cc(Cl)ccc2C(F)(F)F)CCN3)c1 (stereo not shown) [Example 343, 3-{1-[5-Chloro-2-(trifluoromethyl)benzyl]-1,2,3,4-tetrahydropyrido[2,3-b]pyrazin-7-yl}-N-indan-1-ylbenzamide] | 100 to 1000 nM
8 | O=C(c1cccc(-c2cnc3c(c2)N(Cc2cc(Cl)ccc2C(F)(F)F)CCN3)c1)N1CCC(c2c[nH]c3ccccc23)CC1 [Example 314, (3-{1-[5-Chloro-2-(trifluoromethyl)benzyl]-1,2,3,4-tetrahydropyrido[2,3-b]pyrazin-7-yl}phenyl)-[4-(1H-indol-3-yl)piperidin-1-yl]methanone] | 100 to 1000 nM
9 | O=C(c1cccc(-c2cnc3c(c2)N(Cc2cc(Cl)ccc2C(F)(F)F)CCN3)c1)N1CCCC1c1cccnc1 (stereo not shown) [Example 366, (3-{1-[5-Chloro-2-(trifluoromethyl)benzyl]-1,2,3,4-tetrahydropyrido[2,3-b]pyrazin-7-yl}phenyl)-(2-pyridin-3-ylpyrrolidin-1-yl)methanone] | 100 to 1000 nM
10 | O=C(c1ccc(-c2cnc3c(c2)N(Cc2cc(Cl)ccc2C(F)(F)F)CCN3)cc1)N1CCC2(CC1)C(=O)NCN2c1ccccc1 [Example 380, 8-(4-{1-[5-Chloro-2-(trifluoromethyl)benzyl]-1,2,3,4-tetrahydropyrido[2,3-b]pyrazin-7-yl}benzoyl)-1-phenyl-1,3,8-triaza-spiro[4.5]decan-4-one] | 100 to 1000 nM
11 | O=C(c1cccc(-c2cnc3c(c2)N(Cc2cc(Cl)ccc2C(F)(F)F)CCN3)c1)N1CCN(c2ccccc2C(F)(F)F)CC1 [Example 319, (3-{1-[5-Chloro-2-(trifluoromethyl)benzyl]-1,2,3,4-tetrahydropyrido[2,3-b]pyrazin-7-yl}phenyl)-{4-[2-(trifluoromethyl)phenyl]piperazin-1-yl}methanone] | 100 to 1000 nM
12 | COc1ccc(N2CCN(C(=O)c3ccc(-c4cnc5c(c4)N(Cc4cc(Cl)ccc4C(F)(F)F)CCN5)cc3)CC2)cc1 [Example 411, (4-{1-[5-Chloro-2-(trifluoromethyl)benzyl]-1,2,3,4-tetrahydropyrido[2,3-b]pyrazin-7-yl}phenyl)-[4-(4-methoxyphenyl)piperazin-1-yl]methanone] | 100 to 1000 nM
13 | CS(=O)(=O)c1ccc(CNC(=O)c2cccc(-c3cnc4c(c3)N(Cc3cc(Cl)ccc3C(F)(F)F)CCN4)c2)cc1 [Example 347, 3-{1-[5-Chloro-2-(trifluoromethyl)benzyl]-1,2,3,4-tetrahydropyrido[2,3-b]pyrazin-7-yl}-N-(4-methanesulfonylbenzyl)benzamide] | 100 to 1000 nM
14 | O=C(NC(c1ccccc1)c1ccccc1)c1cccc(-c2cnc3c(c2)N(Cc2cc(Cl)ccc2C(F)(F)F)CCN3)c1 [Example 333, N-Benzhydryl-3-{1-[5-chloro-2-(trifluoromethyl)benzyl]-1,2,3,4-tetrahydropyrido[2,3-b]pyrazin-7-yl}benzamide] | 100 to 1000 nM
15 | O=C(c1ccc(-c2cnc3c(c2)N(Cc2cc(Cl)ccc2C(F)(F)F)CCN3)cc1)N1CCOCC1 [Example 408, (4-{1-[5-Chloro-2-(trifluoromethyl)benzyl]-1,2,3,4-tetrahydropyrido[2,3-b]pyrazin-7-yl}phenyl)morpholin-4-ylmethanone] | 100 to 1000 nM
16 | O=C(NCc1ccccc1Cl)c1ccc(-c2cnc3c(c2)N(Cc2cc(Cl)ccc2C(F)(F)F)CCN3)cc1 [Example 412, N-(2-Chlorobenzyl)-4-{1-[5-chloro-2-(trifluoromethyl)benzyl]-1,2,3,4-tetrahydropyrido[2,3-b]pyrazin-7-yl}benzamide] | 100 to 1000 nM
17 | O=C(NCc1ccc(Cl)cc1)c1cccc(-c2cnc3c(c2)N(Cc2cc(Cl)ccc2C(F)(F)F)CCN3)c1 [Example 349, N-(4-Chlorobenzyl)-3-{1-[5-Chloro-2-(trifluoromethyl)benzyl]-1,2,3,4-tetrahydropyrido[2,3-b]pyrazin-7-yl}benzamide] | 100 to 1000 nM
18 | COc1ccccc1N1CCN(C(=O)c2cccc(-c3cnc4c(c3)N(Cc3cc(Cl)ccc3C(F)(F)F)CCN4)c2)CC1 [Example 311, (3-{1-[5-Chloro-2-(trifluoromethyl)benzyl]-1,2,3,4-tetrahydropyrido[2,3-b]pyrazin-7-yl}phenyl)-[4-(2-methoxyphenyl)piperazin-1-yl]methanone] | 100 to 1000 nM
19 | O=C(c1cccc(-c2cnc3c(c2)N(Cc2cc(Cl)ccc2C(F)(F)F)CCN3)c1)N1CCN(c2cccc(Cl)c2)CC1 [Example 357, [4-(3-Chlorophenyl)piperazin-1-yl]-(3-{1-[5-chloro-2-(trifluoromethyl)benzyl]-1,2,3,4-tetrahydropyrido[2,3-b]pyrazin-7-yl}phenyl)methanone] | 100 to 1000 nM
20 | COc1ccc(CN2CCN(C(=O)c3cccc(-c4cnc5c(c4)N(Cc4cc(Cl)ccc4C(F)(F)F)CCN5)c3)CC2)cc1 [Example 322, (3-{1-[5-Chloro-2-(trifluoromethyl)benzyl]-1,2,3,4-tetrahydropyrido[2,3-b]pyrazin-7-yl}phenyl)-[4-(4-methoxybenzyl)piperazin-1-yl]methanone] | 100 to 1000 nM
21 | O=C(c1ccc(-c2cnc3c(c2)N(Cc2cc(Cl)ccc2C(F)(F)F)CCN3)cc1)N1CCC(c2noc3cc(F)ccc23)CC1 [Example 387, (4-{1-[5-Chloro-2-(trifluoromethyl)benzyl]-1,2,3,4-tetrahydropyrido[2,3-b]pyrazin-7-yl}phenyl)-[4-(6-fluorobenzo[d]isoxazol-3-yl)-piperidin-1-yl]methanone] | 100 to 1000 nM
22 | COc1ccccc1CN(C)C(=O)c1cccc(-c2cnc3c(c2)N(Cc2cc(Cl)ccc2C(F)(F)F)CCN3)c1 [Example 367, 3-{1-[5-Chloro-2-(trifluoromethyl)benzyl]-1,2,3,4-tetrahydropyrido[2,3-b]pyrazin-7-yl}-N-(2-methoxybenzyl)-N-methylbenzamide] | 100 to 1000 nM
23 | O=C(c1cccc(-c2cnc3c(c2)N(Cc2cc(Cl)ccc2C(F)(F)F)CCN3)c1)N1CCC[C@H]1CN1CCCC1 [Example 365, (3-{1-[5-Chloro-2-(trifluoromethyl)benzyl]-1,2,3,4-tetrahydropyrido[2,3-b]pyrazin-7-yl}phenyl)-((S)-2-pyrrolidin-1-ylmethylpyrrolidin-1-yl)methanone] | < 100 nM
24 | O=C(c1ccc(-c2cnc3c(c2)N(Cc2cc(Cl)ccc2C(F)(F)F)CCN3)cc1)N1CCN(c2ccccc2Cl)CC1 [Example 426, [4-(2-Chlorophenyl)piperazin-1-yl]-(4-{1-[5-chloro-2-(trifluoromethyl)benzyl]-1,2,3,4-tetrahydropyrido[2,3-b]pyrazin-7-yl}phenyl)methanone] | 100 to 1000 nM
25 | O=C(c1cccc(-c2cnc3c(c2)N(Cc2cc(Cl)ccc2C(F)(F)F)CCN3)c1)N1CCN(CC2CCCCC2)CC1 [Example 362, (3-{1-[5-Chloro-2-(trifluoromethyl)benzyl]-1,2,3,4-tetrahydropyrido[2,3-b]pyrazin-7-yl}phenyl)-[4-(cyclohexylmethyl)piperazin-1-yl]methanone] | 100 to 1000 nM
26 | O=C(NC1CCN(Cc2ccccc2)CC1)c1ccc(-c2cnc3c(c2)N(Cc2cc(Cl)ccc2C(F)(F)F)CCN3)cc1 [Example 390, N-(1-Benzylpiperidin-4-yl)-4-{1-[5-chloro-2-(trifluoromethyl)benzyl]-1,2,3,4-tetrahydropyrido[2,3-b]pyrazin-7-yl}benzamide] | 100 to 1000 nM
27 | O=C(c1cccc(-c2cnc3c(c2)N(Cc2cc(Cl)ccc2C(F)(F)F)CCN3)c1)N1CCN(c2ccccc2)CC1 [Example 306, (3-{1-[5-Chloro-2-(trifluoromethyl)benzyl]-1,2,3,4-tetrahydropyrido[2,3-b]pyrazin-7-yl}phenyl)-(4-phenylpiperazin-1-yl)methanone] | 100 to 1000 nM
28 | O=C(NC(c1ccccc1)c1ccccc1)c1ccc(-c2cnc3c(c2)N(Cc2cc(Cl)ccc2C(F)(F)F)CCN3)cc1 [Example 399, N-Benzhydryl-4-{1-[5-chloro-2-(trifluoromethyl)benzyl]-1,2,3,4-tetrahydropyrido[2,3-b]pyrazin-7-yl}benzamide] | 1000 to 10000 nM
